The values below come from PMC11117252, “The MraY Inhibitor Muraymycin D2 and Its Derivatives Induce Enlarged Cells in Obligate Intracellular Chlamydia and Wolbachia and Break the Persistence Phenotype in Chlamydia” (Antibiotics, 2024).

In brackets after ≈: the same amount, converted by molar mass. Where two headings read alike, the source gives them in different places.

For series [1], the system named is C. trachomatis D/UW-3/CX. In words: Anti-chlamydial activity (MIC) in C. trachomatis-infected HEp-2 cells, fluorescence microscopy. It counts as cell-based. Particulars: for MIC: C. trachomatis D/UW-3/CX-infected HEp-2 cells, compound added at 2 hpi, fluorescence microscopy at 30 hpi, MIC = lowest concentration with >90% reduction in inclusions or inducing enlarged aberrant cells, three experiments; for Effect on C. trachomatis infection (phenotype): added at 2 hpi, read at 30 hpi, HEp-2 cells. On the procedure: First, we tested the lead compound MRY D2 (Figure 1a) and seven muraymycin derivatives (MRH; described in [47, 48]) on C. trachomatis in cell culture experiments. To this end, C. trachomatis D/UW-3/CX-infected HEp-2 cells were treated with the compounds at 2 h post infection (hpi; Figure 1b), which represents an early stage of the chlamydial developmental cycle before bacterial replication. Inhibitors were applied over a range of concentrations that were not detrimental to HEp-2 host cells in resazurin-based viability assays (Table S1), and the effects were visualized by fluorescence microscopy (Figure 1c and Figure S2) at 30 hpi. The minimal inhibitory concentration (MIC) for Chlamydia was defined as either the lowest concentration leading to a >90% reduction in inclusions or, for aberrance-inducing compounds, the concentration leading to abnormal chlamydial cell phenotypes, i.e., enlarged cells after treatment with PEN G [39].
(§1) The effect of the compounds on active C. trachomatis infections was analyzed by fluorescence microscopy. […] The cells were washed once with medium and infected with freshly prepared C. trachomatis D/UW-3/CX EB-containing suspension. After 2 h incubation, the EB suspension was aspirated, and the cells were washed twice with medium. The effect of compounds on an infection was determined by application of the compound at 2 hpi or 12 hpi in a serial dilution from 1 µg/mL to 64 µg/mL (MRH-25, -76, -92, cCPZ) or from 1 µg/mL to 128 µg/mL (MRY D2, MRH-22, -23, -38, and -82). Negative controls were conducted with DMSO as a vehicle control. For Chlamydia, the MIC is defined as a >90% reduction in inclusions. The MIC of compounds inducing the formation of enlarged, aberrant bodies is the lowest concentration that induces the abnormal inclusion morphology.
Infected HEp-2 cells were fixed and permeabilized with 100% (v/v) ice-cold methanol at 30 hpi and washed once with 1 × phosphate-buffered saline (PBS, 4 mM KH2PO4 pH 7.4, 16 mM Na2HPO4, 115 mM NaCl). The Pathfinder Chlamydia Culture Confirmation System (Bio-Rad Laboratories, Hercules, CA) was used to stain the C. trachomatis lipopolysaccharide and host cell cytoplasm by incubation for 30 min at 37 °C. Genomic DNA was stained with 10 µg/mL DAPI (Thermo Fisher Scientific) for 1 min and then washed twice with PBS for 10 min at 4 °C. Fluorescence microscopy was performed with an Axio observer Z.1 using the Zen2 software (Carl Zeiss, Oberkochen, Germany).

The subject of series [2] is HEp-2 cells.
Protocol: (§2) Cytotoxicity of the compounds toward HEp-2 cells was assessed using the resazurin-based alamarBlue cell viability reagent (Thermo Fisher Scientific, Waltham, MA, USA). 5 × 10^4 HEp-2 cells/mL were seeded into flat base TC-96-well plates (Sarstedt, Nümbrecht, Germany) and incubated at 37 °C and 5% (v/v) CO2. After 48 h, the cells were washed with medium, followed by the addition of compounds in a serial dilution ranging from 128 µg/mL to 1 µg/mL for another 28 h. Next, the cells were washed twice with Hank’s balanced salt solution (HBSS) and incubated with the alamarBlue cell viability reagent diluted 1:10 in HBSS for 1 h. The conversion of resazurin into resorufin by viable cells was determined by transferring the supernatant into black 96-well plates (Greiner Bio-One, Frickenhausen, Germany) and measuring the fluorescence at 550 nm excitation and 595 nm emission wavelengths using a Tecan infinite M200 plate reader and Tecan SparkControl software v3.2 (Tecan Group, Männedorf, Switzerland). HEp-2 cell viability was normalized to the vehicle control, and the cytotoxic concentration 50% (CC50) was calculated by non-linear regression using GraphPad Prism v10.1.2 (GraphPad Software, San Diego, CA, USA).
The subject of a further series is C. trachomatis serovar D. The note with it: C. trachomatis serovar D in cell culture; cited from earlier work. On the procedure:
The tested compounds were applied to C. trachomatis-infected cells at an early stage of the chlamydial developmental cycle (Figure 1a), before the bacteria started replicating. During the early treatment with MRY D2, the majority of muraymycin derivatives and cCPZ had MICs between 16 µg/mL for cCPZ and 128 µg/mL for MRY D2 (Figure 1d). These MICs were relatively high compared with the MICs of the first-choice antibiotics against uncomplicated chlamydial genital infections, DOX and AZI, which have MICs of <1 µg/mL against C. trachomatis serovar D in cell culture. All der ...

For series [3], the system named is Wolbachia strain B of A. albopictus. In words: Quantification (depletion) of Wolbachia by qPCR, 16S rDNA/actin B ratio. Format: cell-based, Wolbachia strain B of Aedes albopictus. The note with it: 4 µg/mL, 9 days, C6/36 cells, positive control. On the technique in general: In qPCR the cycle at which signal appears reflects the starting amount.
Protocol: (a) A. albopictus C6/36 cells infected with Wolbachia strain B of A. albopictus were cultured for 9 days with or without the compounds at varying concentrations. […] (c) The depletion of Wolbachia from infected and treated C6/36 cells was measured after 9 days by extracting genomic DNA and measuring the ratio of Wolbachia 16S rDNA and A. albopictus actin B by qPCR; the median ± interquartile range from three experiments is shown.
Susceptibility of Wolbachia toward different compounds was tested as described [32, 53]. In short, 1 × 10^4 cells/well of A. albopictus C6/36 infected with Wolbachia were cultured in supplemented medium in 96-well plates with or without compound at 26 °C for 9 days. The medium, with and without compound, was exchanged every third day, and the cells were harvested on day 9 for the extraction of genomic DNA using the QIAamp Kit (Qiagen, Hilden, Germany) according to the manufacturer’s protocol. Wolbachia were quantified by qPCR of the 16S rDNA gene of Wolbachia (GenBank accession No. X61767) and the actin B gene of A. albopictus (GenBank accession no. DQ657949) as described [32, 91]. A plasmid containing the appropriate insert was used to generate a standard curve to determine the copy number of the genes. The abundance of Wolbachia was normalized by calculating the ratio of 16S rDNA copies/µL to actin B copies/µL.
For a further series, the system named is C. pneumoniae MraY. Briefly: Inhibition of C. pneumoniae MraY in vitro (lipid I formation, TLC). It counts as biochemical. Particulars: 0.5 µM compound (range tested 0.05-0.5 µM), 2 µg MraYCpn, C55-P, UDP-MurNAc-pentapeptide, 90 min, duplicate. The source says: (a) C. pneumoniae and Wolbachia spp. MraY use the precursor molecules undecaprenyl-phosphate (C55-P) and uridine diphosphate (UDP)-N-acetylmuramoyl(MurNAc)-pentapeptide to form lipid I, which is glycosylated with N-acetylglucosamine (GlcNAc) by MurG, yielding lipid II. IM: inner membrane; UMP: uridine monophosphate; mDAP: meso-diaminopimelic acid; C55-P: undecaprenyl-phosphate. […] Reaction products were extracted, separated via thin-layer chromatography, and stained. Formation of lipid I by MraYCpn was inhibited by both tested inhibitors.
C. pneumoniae MraY was heterologously overexpressed in E. coli, purified via His-tag affinity chromatography, and inhibition of the enzymatic activity was analyzed by visualizing the reaction products via thin-layer chromatography.
Inhibition assays with MraYCpn and the compounds were performed based on the activity assays for MraYCpn as previously described, with minor modifications, in a final volume of 50 µL. First, 2.5 nmol C55-P (Larodan, Solna, Sweden) was dissolved in 0.43% (v/v) Triton X-100 by vortexing for 1 min. Then, 75 mM Tris-HCl (pH 7.5), 6 mM MgCl2, 10% (v/v) DMSO, and UDP-MurNAc-pentapeptide obtained from Bacillus cereus DSM2302 (based on) were added. Compounds were applied at the indicated concentrations and incubated with 2 µg MraYCpn at 30 °C for 90 min. […]

In series [4] the test system is C. trachomatis D/UW-3/CX. Briefly: Effect of MRY D2 on active (mid-stage) and penicillin G-induced persistent C. trachomatis infections, inclusion counts. The note with it: read at 30 hpi. It counts as cell-based. On the procedure:
Figure 6 Effect of MRY D2 on PEN G-induced persistent C. trachomatis infections. (a) HEp-2 cells infected with C. trachomatis D/UW-3/CX were treated with 128 µg/mL MRY D2 at 2 hpi or 12 hpi to analyze the effect on active infection. Additionally, 128 µg/mL MRY D2 and 100 U/mL PEN G were added simultaneously at 2 hpi. To assess the effect on a PEN G-induced persistent infection, 100 U/mL PEN G was added at 2 hpi, and 128 µg/mL MRY D2 was added at 12 hpi. Anti-chlamydial activity was analyzed at 30 hpi by fluorescence microscopy. (b) Eukaryotic host cell cytoplasm from representative images was labelled with Evans Blue (red), genomic DNA with DAPI (blue), and chlamydial lipopolysaccharide with fluorescein (green). Scale bar: 10 µm. (c) Mean ± SD of inclusions/field and (d) the relative number of inclusions filled with either elementary bodies (EBs)/reticulate bodies (RBs), ABs, or a mixed phenotype, analyzed from three images. An unpaired, two-tailed Student’s t-test was performed against the respective vehicle control. ns: not significant, p > 0.05; *: p = 0.05 to 0.01; **: p = 0.01 to 0.001; ****: p < 0.0001. In comparison with the DMSO vehicle control, the addition of PEN G at 2 hpi induced persistence, characterized by aberrant bodies. Early application of MRY D2 at 2 hpi (p < 0.0001) and simultaneous application with PEN G at 2 hpi induced the formation of ABs. […] This was also visible if persistence was induced by PEN G at 2 hpi followed by MRY D2 addition at 12 hpi (p = 0.0037).
as §1
The effect of MRY D2 on penicillin-induced persistent C. trachomatis infections was analyzed as described for the active infection, with the following modifications. After removal of the EB-containing lysate at 2 hpi and washing of the cells, 100 U/mL PEN G was added to induce a persistent infection. MRY D2 was added at 12 hpi in a concentration range of 128 µg/mL to 1 µg/mL by serial dilution. In another approach, MRY D2 was applied simultaneously with PEN G at 2 hpi to determine if early administration influences the establishment of a persistent infection.
Infected HEp-2 cells were fixed and permeabilized with 100% (v/v) ice-cold methanol at 30 hpi and washed once with 1 × phosphate-buffered saline (PBS, 4 mM KH2PO4 pH 7.4, 16 mM Na2HPO4, 115 mM NaCl). The Pathfinder Chlamydia Culture Confirmation System (Bio-Rad Laboratories, Hercules, CA) was used to stain the C. trachomatis lipopolysaccharide and host cell cytoplasm by incubation for 30 min at 37 °C. […] Fluorescence microscopy was performed with an Axio observer Z.1 using the Zen2 software (Carl Zeiss, Oberkochen, Germany).
Inclusions were quantified using CellProfiler 4.0.6. […]

Series [5] relates to HEp-2 cells. In words: Cytotoxicity toward HEp-2 cells, resazurin-based alamarBlue viability assay. The note with it: 28 h incubation, normalized to DMSO, non-linear regression from mean of two independent experiments, highest concentration tested 128 µg/mL. In general terms: The colour change of resazurin is a common sign of viable cells or microbes.
Protocol: as §2
Setting [6] is: 128 µg/mL MRY D2 alone added at 12 hpi.

As for `CCCCCCCCCCCCCCCCC[C@H]1CN(C)[C@@H]([C@H](O[C@@H]2O[C@H](CN)[C@@H](O)[C@H]2O)[C@H]2O[C@@H](n3ccc(=O)[nH]c3=O)[C@H](O)[C@@H]2O)C(=O)N(C)[C@@H]1C(=O)O` [cCPZ, carbacaprazamycin], the MIC (as a rule, the lowest concentration that inhibits growth of the organism) against C. trachomatis D/UW-3/CX [1] worked out at 16 µg/mL (≈ 20.1 µM). The CC50 (as a rule, the concentration giving 50% cytotoxicity) in the series on HEp-2 cells [2] was determined as 124 µg/mL (≈ 155 µM).

As to `CC[C@H]1OC(=O)[C@H](C)[C@@H](O[C@H]2C[C@@](C)(OC)[C@@H](O)[C@H](C)O2)[C@H](C)[C@@H](O[C@@H]2O[C@H](C)C[C@H](N(C)C)[C@H]2O)[C@](C)(O)C[C@@H](C)CN(C)[C@H](C)[C@@H](O)[C@]1(C)O` [AZI, azithromycin], the MIC with C. trachomatis serovar D is less than 1 µg/mL.

For the molecule `C[C@H]1c2cccc(O)c2C(=O)C2=C(O)[C@]3(O)C(=O)C(C(N)=O)=C(O)[C@@H](N(C)C)[C@@H]3[C@@H](O)[C@@H]21` [DOX, doxycycline], the “Depletion of Wolbachia (16S rDNA/actin B by qPCR)” value in series [3] was “nearly completely depleted”. Besides, the MIC in the series with C. trachomatis serovar D is given as less than 1 µg/mL.

For the molecule `O=C(O)c1cn(C2CC2)c2cc(N3CCNCC3)c(F)cc2c1=O` [CIP, ciprofloxacin, reference compound], the “Effect on C. trachomatis infection (phenotype)” value in the series with C. trachomatis D/UW-3/CX [1] (0.5 µg/mL) was “bactericidal”.

In the series with C. trachomatis D/UW-3/CX [1], `CC(C)C[C@H](NC(=O)[C@@H](NC(=O)N[C@H](C(=O)O)C(C)C)[C@@H]1CCN=C(N)N1)C(=O)NCCCN[C@H](C(=O)O)[C@H](O[C@@H]1O[C@H](CN)[C@@H](O)[C@H]1O)[C@H]1O[C@@H](n2ccc(=O)[nH]c2=O)[C@H](O)[C@@H]1O` [MRY D2, Muraymycin D2] came in with an MIC of 128 µg/mL (≈ 140 µM). The “Inhibition of lipid I formation by recombinant MraYCpn” value in the series with C. pneumoniae MraY is on record as “completely abolished enzymatic activity”. Moreover, in the series with C. trachomatis D/UW-3/CX [4] (setting [6]), the “Relative number of inclusions containing EBs/RBs” value is on record as 83% and the “Relative number of inclusions containing a mixed phenotype (EBs/RBs/ABs)” value was determined as 8%. In addition, in the series on C. trachomatis D/UW-3/CX [4] (128 µg/mL MRY D2 and 100 U/mL PEN G added simultaneously at 2 hpi), the “Phenotype on simultaneous treatment with PEN G” value is given as “inclusions filled with ABs were visible as for PEN G alone”. Moreover, the “Fewer inclusions (reduction in inclusion number)” value in the series on C. trachomatis D/UW-3/CX [4] (active infection: 128 µg/mL MRY D2 alone added at 12 hpi) is given as 75%. Further, in the series on C. trachomatis D/UW-3/CX [4] (established persistent infection: 100 U/mL PEN G at 2 hpi, then 128 µg/mL MRY D2 at 12 hpi, vs PEN G only), the “Reduction of the inclusion quantity” value worked out at 70%. The CC50 in the series on HEp-2 cells [5] is reported as more than 128 µg/mL.

With `CC1(C)S[C@@H]2[C@H](NC(=O)Cc3ccccc3)C(=O)N2[C@H]1C(=O)O` [PEN, penicillin, reference compound], in the series on C. trachomatis D/UW-3/CX [1] (100 U/mL), the “Effect on C. trachomatis infection (phenotype)” value was “induced persistence visible as enlarged, aberrant bodies”.
